From ChEMBL document CHEMBL3507680, “University of Dundee, Gates Library screen for HepG2 cell viability”

Test: Human HepG2 cell viability assay in 384 well format
Assay type: toxicity, cell-based
Set-up: dose 125 nL, time 70.5 hour; cytotoxicity at 70.5 h: concentration not given beside the values
Conditions: HepG2 cells, read-out: Inhibition

| Structure (SMILES) | cytotoxicity at 70.5 h |
| --- | --- |
| CC(O)CN(C)C(=O)Nc1ccn(-c2cccc(C(F)(F)F)c2)n1 (stereo unspecified) | -3.19% |
| CCN(CC(=O)NCCc1nc(C)no1)Cc1ccc(Cl)cc1 | -2.02% |
| CC(C)(C)OC(=O)N1CCC[C@H](NCC2CCOCC2)C1 | -0.369% |
| CCC(=O)N1CCC(NC2CCCC2)C1 (stereo unspecified) | -7.41% |
| Cn1ncc2c(=O)[nH]c(CN3CCCc4cc(F)ccc43)nc21 | -23.1% |
| Cc1cc(F)c2c(c1)CCCN2Cc1nc2c(cnn2C)c(=O)[nH]1 | -28.1% |
| CCN(CC)Cc1ccc(C(=O)NC2CCc3cc(F)ccc32)o1 (stereo unspecified) | -19% |
| CCN(CC)Cc1ccc(C(=O)NC2CCc3cc(Cl)ccc32)o1 (stereo unspecified) | 21.2% |
| CC(C)N(Cc1ccccc1)C(=O)NCCNC(=O)c1cccnc1 | -13.6% |
| NC(=O)CC1CCCCN1C(=O)c1ccc2cc[nH]c2c1 (stereo unspecified) | 21.6% |
| O=C(NCc1ccccn1)NCC(O)c1ccccc1C(F)(F)F (stereo unspecified) | -5.77% |
| CC(C)CNC(=O)c1[nH]nc(C2CC2)c1Br | -4.78% |
| CC(C)(CNc1c(C#N)cnc2ccc(Cl)cc12)C(N)=O | -17.7% |
| CN(C)C(CNC(=O)c1[nH]nc(C2CC2)c1Br)C1CC1 (stereo unspecified) | -5.45% |
| Cc1cc(C2CCCN(CC(=O)N3CCCc4ccccc43)C2)n[nH]1 (stereo unspecified) | -9.66% |
| Cc1c(Br)cccc1C(=O)Nc1cc(C(N)=O)n(C)c1 | -6.66% |
| CCc1csc(NC(=O)Nc2c(C)n[nH]c2C)n1 | -4.31% |
| CS(=O)(=O)CC1(CNc2cc(C#N)c3cc(Cl)ccc3n2)CC1 | -6.39% |
| Cc1cnc(CN(C)Cc2cccc(OC(F)(F)F)c2)cn1 | -3.82% |
| CCC1c2ccccc2CCN1CCCS(C)(=O)=O (stereo unspecified) | -3.06% |
| CN(Cc1cccc(O)c1)Cc1cnn(C)c1 | -4.55% |

| Structure (SMILES) | cytotoxicity at 70.5 h |
| --- | --- |
| CC(NCc1cnc(N2CCN(C)CC2)nc1)c1ccc(F)cc1 (stereo unspecified) | -6.26% |
| CCCN1CCCN(C(=O)c2oc(C)nc2C)CC1 | 30.9% |
| CC(C)OCc1noc(C2CCOC2)n1 (stereo unspecified) | -9.31% |
| CC(c1nc(C(C)(C)C)no1)S(=O)(=O)CC(=O)N(C)C (stereo unspecified) | -6.15% |
| CC(c1nc(C(C)(C)C)no1)S(=O)(=O)CC(=O)N1CCCC1 (stereo unspecified) | -2.18% |
| Cc1cn2nc(Sc3nnnn3C)sc2n1 | -4.31% |
| COc1ccc(C(=O)Nc2ccc3c(c2)C(=O)NC3)cc1Br | -5.4% |
| CNS(=O)(=O)c1ccc(C(=O)Nc2ccc3c(c2)C(=O)NC3)cc1 | 1.61% |
| CC(SCC(=O)N(C)CC(=O)NC1CC1)c1ccc(F)c(F)c1 (stereo unspecified) | -10.3% |
| CN(CC(=O)NC(C)(C)C)C(=O)C1CC(c2cccc(F)c2)=NO1 (stereo unspecified) | 4.91% |
| CN(Cc1ccc2c(c1)OCO2)C(=O)C1CC(c2cccc(F)c2)=NO1 (stereo unspecified) | -9.63% |
| CCn1c(C)nnc1Sc1nn2cc(C)nc2s1 | -5.8% |
| CCCNC(=O)C1CCN(CC(O)c2ccccc2)CC1 (stereo unspecified) | -10.6% |
| CCOc1ccc(C#N)cc1NC(=O)N1CCC(n2cncn2)CC1 | 5.95% |
| COc1cccc(-c2nnn(C3CCN(CC(F)(F)F)C3=O)n2)c1 (stereo unspecified) | 0.471% |
| O=C(c1cc(F)ccc1O)N1CCN(C(=O)C2CCC2)CC1 | -3.26% |
| O=C(c1cc(F)ccc1O)N1CCN(C2CCOCC2)CC1 | 0.856% |
| CC(C)(C)S(=O)(=O)c1ccc(N2CCC(n3cncn3)CC2)cn1 | 14.6% |
| CC(C)(C)S(=O)(=O)c1ccc(N2CCC(n3cccn3)CC2)cn1 | 6.49% |
| CC(C)(C)S(=O)(=O)c1ccc(N2CCC(n3ccnc3)CC2)cn1 | -12.2% |
| CCOC(=O)CN(C)Cc1cnc(C)s1 | 7.03% |

| Structure (SMILES) | cytotoxicity at 70.5 h |
| --- | --- |
| CC(C)OCc1noc(C2CCCOC2)n1 (stereo unspecified) | -10.6% |
| CN1CC(NC(=O)CCOc2cccc(Cl)c2)CC1=O (stereo unspecified) | 17.2% |
| CC(C)C(=O)N(C)Cc1nnc2n1CCCCC2 | 25% |
| CN(C(=O)Cc1coc(-c2ccccc2)n1)C1(C#N)CCC1 | 1.14% |
| CC(C)OCCCNC(=O)NC(C)c1ccc(-n2cncn2)cc1 (stereo unspecified) | 0.395% |
| CCOCCCNC(=O)NC(C)c1ccc(-n2cncn2)cc1 (stereo unspecified) | -5.55% |
| CC(=O)c1cccc(S(=O)(=O)N2CCC(c3noc(C)n3)CC2)c1 | -9.37% |
| Cc1ccc(OCCC(=O)NC2CC(=O)N(C)C2)cc1C (stereo unspecified) | -6.43% |
| CC(C)CC(NS(C)(=O)=O)C(=O)N(C)Cc1nnc2n1CCC2 (stereo unspecified) | -8.38% |
| O=C(Nc1ccccc1)c1ccc(NCc2nccs2)nn1 | -10% |
| Cc1cnn(CCNC(C)C(=O)NCCc2cccs2)c1 (stereo unspecified) | 23% |
| O=C(Nc1ccccc1)c1ccc(NCc2ccccc2CO)nn1 | -6.13% |
| CS(=O)(=O)CCSCc1cccc2cccnc12 | -4.91% |
| CCc1cnc(N2CCN(Cc3ccon3)CC2)s1 | -6.28% |
| CC(=O)Nc1ccc(CNC2CCCSC2)cc1 (stereo unspecified) | 23.3% |
| CN(C(=O)Cc1coc(-c2cccs2)n1)C1(C#N)CCC1 | -6.29% |
| CC(C)OCCn1nnnc1Cc1ccc(Br)cc1 | -5.01% |
| N#Cc1cnc2ccccc2c1N1CCN(CCC(=O)O)CC1 | 1.24% |
| Cc1cccc(-c2c[nH]c(C3CCCN3)n2)c1 (stereo unspecified) | -7.37% |
